The source of these data is US7375088B2, “Polyene polyketides, processes for their production and their use as a pharmaceutical” (Thallion Pharmaceuticals Inc., priority 2003, dated 2008).

Structures are written as SMILES.

For one assay, the system named is Aspergillus fumigatus. Kind of assay: Disk diffusion assay (MEC and zone of inhibition). It is filed as cell-based. The settings on record: for ZOI (zone of inhibition of fungal growth calculated for each MEC): at the MEC; for ZOI (zone of inhibition of fungal growth calculated for each MEC) / MEC (minimum effective concentration): 24 hours of incubation; for MEC (minimum effective concentration): disk diffusion.

The subject of another assay is Aspergillus flavus. Kind of assay: Disk diffusion assay (MEC and zone of inhibition). It is filed as cell-based. The settings on record: for ZOI (zone of inhibition of fungal growth calculated for each MEC): at the MEC; for ZOI (zone of inhibition of fungal growth calculated for each MEC) / MEC (minimum effective concentration): 24 hours of incubation; for MEC (minimum effective concentration): disk diffusion.

For `CC[C@H](C)C[C@H](C)CCCCCCCCC(=O)N[C@H]1C[C@@H](O)[C@@H](NCCN)NC(=O)[C@@H]2[C@@H](O)CCN2C(=O)[C@H]([C@H](O)CCN)NC(=O)[C@H]([C@H](O)[C@@H](O)c2ccc(O)cc2)NC(=O)[C@@H]2C[C@@H](O)CN2C(=O)[C@H]([C@@H](C)O)NC1=O` [Casponfungin], the “ZOI (zone of inhibition of fungal growth calculated for each MEC)” value with Aspergillus fumigatus and with Aspergillus flavus was 0.7 mm in each case. Further, the “MEC (minimum effective concentration)” value in the assay on Aspergillus fumigatus and in the assay with Aspergillus flavus was 2.5 µg/mL each time.
Turning to `OC(Cn1cncn1)(Cn1cncn1)c1ccc(F)cc1F` [Fluconazole], in the assay with Aspergillus fumigatus, the “antifungal activity in disk diffusion assay” value is “inactive”, the “ZOI (zone of inhibition of fungal growth calculated for each MEC)” value is on record as 0 mm and the “MEC (minimum effective concentration)” value was 0 µg/mL. Besides, in the assay on Aspergillus flavus, the “antifungal activity in disk diffusion assay” value is “inactive”, the “ZOI (zone of inhibition of fungal growth calculated for each MEC)” value is 0 mm and the “MEC (minimum effective concentration)” value turned out to be 0 µg/mL.
On to `CCC(C)n1ncn(-c2ccc(N3CCN(c4ccc(OCC5COC(Cn6cncn6)(c6ccc(Cl)cc6Cl)O5)cc4)CC3)cc2)c1=O` (centres unmarked) [Itraconazole], for which, in the assay with Aspergillus fumigatus, the “ZOI (zone of inhibition of fungal growth calculated for each MEC)” value is given as 1.7 mm and the “MEC (minimum effective concentration)” value came to 1.0 µg/mL. In the assay with Aspergillus flavus, the “ZOI (zone of inhibition of fungal growth calculated for each MEC)” value is listed as 1.7 mm and the “MEC (minimum effective concentration)” value was 0.5 µg/mL.
